Data from PubChem BioAssay AID1845228.
Values joined by “and” are separate entries in the source; they are usually repeats but may differ in a detail not shown here. Equal values may be shown once. Numbered stars: 1 amine (or outer) side, 2 acyl side, 3 side chain; on linkers, the order of the positions; unused ones are H or OH. Bridge positions count the residues as written; N and C are the ends. Square brackets hold non-standard residues; d marks the D form. Peptide text beside a SMILES is read from it. I, II: the chains in the order shown. Actinocin(9to1) = Cc1c2oc3c(C)ccc(C(=O)[*:1])c3nc-2c(C(=O)[*:2])c(N)c1=O; NMeV = CN[C@H](C(=O)O)C(C)C; Sar = CNCC(=O)O

Conditions: pampa; 60.0 min; 50.0 µM

SMILES	Papp
COC(Cn1cnc2c(c(-c3ccccc3)c(-c3ccccc3)n2CCc2ccccc2)c1=N)OC	236 ×10⁻⁶ cm/s
O=C1Nc2ccc(C(=O)c3ccco3)cc2/C1=C/c1cc(Cl)c(O)c(Cl)c1	38 ×10⁻⁶ cm/s
CC(=O)OCC1=C(C(=O)O)N2C(=O)[C@@H](NC(=O)[C@H](N)c3ccccc3)[C@H]2SC1	< 1 ×10⁻⁶ cm/s
O=C(C[C@@H]1NCCC[C@H]1O)Cn1cnc2cc(Br)c(Cl)cc2c1=O	43 ×10⁻⁶ cm/s
CCCCC/C=C/C(=O)CCc1ccc(O)c(OC)c1	187 ×10⁻⁶ cm/s
O=C(/C=C\n1cnc(-c2cc(C(F)(F)F)cc(C(F)(F)F)c2)n1)N1CC(F)(F)C1	121 ×10⁻⁶ cm/s
CCC(=O)O[C@@H](OP(=O)(CCCCc1ccccc1)CC(=O)N1C[C@H](C2CCCCC2)C[C@H]1C(=O)O)C(C)C (stereo not given in full)	118 ×10⁻⁶ cm/s
N=c1c2c(-c3ccccc3)c(-c3ccccc3)n(CCc3ccccc3)c2ncn1CCCCO	218 ×10⁻⁶ cm/s
CC(C)N(C[C@H]1O[C@@H](n2cnc3c(N)ncnc32)[C@H](O)[C@@H]1O)C1CC(CCc2nc3ccc(C(C)(C)C)cc3[nH]2)C1 (stereo not given in full)	< 1 ×10⁻⁶ cm/s
Cn1nnnc1Sc1ncnc2scc(-c3ccc([N+](=O)[O-])cc3)c12	93 ×10⁻⁶ cm/s
O=C1NC(Nc2ccccc2)=N/C1=C\c1ccc2c(c1)OCO2	< 1 ×10⁻⁶ cm/s
COC(=O)C[C@@H](C(=O)OC)n1cnc2c(c(-c3ccccc3)cn2Cc2ccc(Br)cc2)c1=N	< 1 ×10⁻⁶ cm/s
CCOC(CCCn1cnc2c(c(-c3ccccc3)c(-c3ccccc3)n2Cc2ccccc2)c1=N)OCC	228 ×10⁻⁶ cm/s
COCCN(C)Cc1ccc2nc3sc(C(=O)N(C)C4CCCCC4)cn3c2c1	79 ×10⁻⁶ cm/s
Cc1onc(-c2c(F)cccc2Cl)c1C(=O)N[C@@H]1C(=O)N2[C@@H]1SC(C)(C)[C@@H]2C(=O)O	28 ×10⁻⁶ cm/s
CC1(C#N)CCN(c2c(C(=O)N3CCN(S(C)(=O)=O)CC3)cnc3ccc(F)cc23)CC1	19 ×10⁻⁶ cm/s
O=C1[C@H](CC[C@H](O)c2ccc(F)cc2)[C@@H](c2ccc(O)cc2)N1c1ccc(F)cc1	< 1 ×10⁻⁶ cm/s
O=C(NCCCN1CCCC1=O)c1ccc(-c2ncc3cnc(-c4ccccc4)cn23)cc1	31 ×10⁻⁶ cm/s
C/C1=C\CC[C@]2(C)O[C@H]2C(=O)c2c(C)coc2C1	122 ×10⁻⁶ cm/s
CC1(C)S[C@@H]2[C@H](NC(=O)C(C(=O)Oc3ccc4c(c3)CCC4)c3ccccc3)C(=O)N2[C@H]1C(=O)O (stereo not given in full)	< 1 ×10⁻⁶ cm/s

SMILES	Papp
Cn1nnnc1Sc1ncnc2scc(-c3cccc(Cl)c3)c12	134 ×10⁻⁶ cm/s
NC(=O)[C@@H]1C[C@]2(NC(=O)NC2=O)c2cc(F)ccc2O1	< 1 ×10⁻⁶ cm/s
CNCCCOc1cc(F)c(-c2c(Cl)nc3ncnn3c2N[C@@H](C)C(F)(F)F)c(F)c1	26 ×10⁻⁶ cm/s
N=c1c2c(-c3ccccc3)c(-c3ccccc3)n(CCc3ccccc3)c2ncn1[C@H](CO)Cc1ccccc1	< 1 ×10⁻⁶ cm/s
CN(CCCCCCN(C)C(=O)Oc1ccc[n+](C)c1)C(=O)Oc1ccc[n+](C)c1	< 1 ×10⁻⁶ cm/s
N#Cc1ccnc(Nc2cc(C3CCN(C4COC4)CC3)cc(N3CCC(F)(F)C3)n2)c1	133 ×10⁻⁶ cm/s
CCC1=C[C@@H]2CN(C1)Cc1c([nH]c3ccccc13)[C@@](C(=O)OC)(c1cc3c(cc1OC)N(C)[C@H]1[C@@](O)(C(=O)OC)[C@H](OC(C)=O)[C@]4(CC)C=CCN5CC[C@]31[C@@H]54)C2	30 ×10⁻⁶ cm/s
CC1=C(C(=O)O)N2C(=O)[C@@H](N)[C@H]2SC1	< 1 ×10⁻⁶ cm/s
CC(C)NC(=O)COc1cccc(-c2nc(Nc3ccc4[nH]ncc4c3)c3ccccc3n2)c1	226 ×10⁻⁶ cm/s
Cc1c2oc3c(C)ccc(C(=O)N[C@@H]4C(=O)N[C@H](C(C)C)C(=O)N5CCC[C@H]5C(=O)N(C)CC(=O)N(C)[C@@H](C(C)C)C(=O)O[C@@H]4C)c3nc-2c(C(=O)N[C@@H]2C(=O)N[C@H](C(C)C)C(=O)N3CCC[C@H]3C(=O)N(C)CC(=O)N(C)[C@@H](C(C)C)C(=O)O[C@@H]2C)c(N)c1=O (I: T[dV]P[Sar][NMeV] / II: T[dV]P[Sar][NMeV]; ester I:1-I:C, II:1-II:C; linker I:N-II:N via Actinocin(9to1))	6 ×10⁻⁶ cm/s and 13 ×10⁻⁶ cm/s
CN1CCN(C(=O)Cc2c[nH]c3ncc(-c4ccccc4Oc4ccccc4)cc23)CC1	299 ×10⁻⁶ cm/s
O=[N+]([O-])c1nccn1CO[C@@H](CO)[C@H](O)CO	< 1 ×10⁻⁶ cm/s
CCN1CCN(C(=O)c2ccc3c(c2)N(Cc2cc(C)ccc2C)C(=O)c2ccccc2S3(=O)=O)CC1	63 ×10⁻⁶ cm/s
CC(/C=C/[C@@H]1C[C@]1(C)c1ccc2c(c1)C(C)(C)CCC2(C)C)=C\C(=O)O	63 ×10⁻⁶ cm/s
COc1cccc2c1C(=O)c1c(O)c3c(c(O)c1C2=O)C[C@@](O)(C(C)=O)C[C@@H]3O[C@H]1C[C@H](N)[C@H](O)[C@H](C)O1	8 ×10⁻⁶ cm/s
O=C(O)C1CN(Cc2ccc(-c3nc4cc(Cc5ccccc5F)ccc4s3)c(F)c2)C1	> 300 ×10⁻⁶ cm/s
CC(=O)Nc1c2sscc-2n(C)c1=O	16 ×10⁻⁶ cm/s
O=C1/C(=C\c2ccccc2)C[C@@]2(O)[C@H]3Cc4ccc(O)c5c4[C@@]2(CCN3CC2CC2)[C@@H]1O5	158 ×10⁻⁶ cm/s
Cc1ccc(CN2C(=O)C(=O)c3cc(Br)cc(C)c32)cc1	98.5 ×10⁻⁶ cm/s
CN(C)CCn1cnc2c(c(-c3ccccc3)c(-c3ccccc3)n2Cc2ccccc2)c1=N	76 ×10⁻⁶ cm/s
